Results as given in ChEMBL document CHEMBL1152002, “Synthesis of inhibitors of -1,3-fucosyltransferase” (Bioorg Med Chem Lett, 1997).

How the values were obtained:
[1] = Compound was tested for the inhibition of Fucosyltransferase 4 alpha 1,3 at 8.5 uM GDP-fucose
[2] = Compound was tested for the inhibition of Fucosyltransferase 4 alpha 1,3 at 2 uM GDP-fucose

IC50 [1]	IC50 [2]	Compound
81 µM	50 µM	C[C@H]1[C@@H](O)[C@H](O)[C@H](O)CN1Cc1ccccc1O[C@@H]1O[C@@H](CO)[C@H](O)[C@H](O)[C@@H]1O
5 µM		Nc1nc2c(ncn2[C@@H]2O[C@H](COP(=O)(O)OP(=O)(O)O)[C@@H](O)[C@H]2O)c(=O)[nH]1

Further lines, the compound ahead of its results:

Compound	IC50 [1]	IC50 [2]
C[C@H]1[C@@H](O)[C@H](O)[C@H](O)CN1CCCO[C@@H]1O[C@@H](CO)[C@H](O)[C@H](O)[C@@H]1O	> 500 µM	
C[C@H]1[C@@H](O)[C@H](O)[C@H](O)CN1CCCCO[C@@H]1O[C@@H](CO)[C@H](O)[C@H](O)[C@@H]1O	233 µM	
C[C@@H]1NC[C@@H](O)[C@H](O)[C@@H]1O [DEOXYFUCONOJIRIMYCIN]	3500 µM	
